Assay results from ChEMBL document CHEMBL3228014, “Preparation of the enantiomeric forms of 9-(5-deoxy-alpha-threo-pent-4-enofuranosyl)adenine and 9-(3,5-dideoxy-beta-D-glycero-pent-4-enofuranosyl)adenine and in vitro antileukemic screening” (1979).
Active and inactive are the calls of the source. The calls are words filed in the database; no cut-off is given here.

Tested on: L1210
Assay: Antiproliferative activity against mouse L1210 cells assessed as growth inhibition at 50 uM
Assay type: functional

Compound: C=C1O[C@H](n2cnc3c(N)ncnc32)[C@@H](O)[C@@H]1O
- inhibition: inactive

Compound: C=C1O[C@@H](n2cnc3c(N)ncnc32)[C@H](O)[C@H]1O
- inhibition: inactive

Compound: C=C1O[C@H](n2cnc3c(N)ncnc32)[C@H](O)[C@H]1O
- inhibition: inactive

Compound: C=C1C[C@@H](O)[C@H](n2cnc3c(N)ncnc32)O1
- inhibition at 50 µM: 50%

Compound: C=C1O[C@@H](n2cnc3c(N)ncnc32)CC1O (single isomer, unassigned)
- inhibition: inactive
